Values of other authors as cited in patent US20260069551A1, “Patch for treating demyelinating diseases” (Johannes Gutenberg-Universität Mainz, priority 2022, published 2026).

System: injured nerves
Settings: 10 mg/kg/day, intraperitoneally injected

Cn1c(=O)c2[nH]cnc2n(C)c1=O [theophylline, 1,3-dimethyl-7H-purine-2,6-dione]
remyelination of injured nerves: significant remyelination
